Test results as given in US12428378B2, “Methods and materials for increasing level of phosphorylated AMPK protein” (University of Pittsburgh—Of the Commonwealth System of …, priority 2019, dated 2025).

The molecules below were run on pAMPK (assay: pAMPK immunostaining chemiluminescence assay in Beas2B cells). Conditions: Homo sapiens, BEAS-2B, 18 h, DMEM no glucose media, compounds 3-34, 36-44, 47-60 tested as HCl salts, read-out: efficacy (minimal compound concentration needed to increase pAMPK by 30%).
Assay type: cell-based
Procedure: Beas2B cells were plated in 384 white nunc plate (4000 cells per well) for overnight. Compounds were serially diluted in DMEM no glucose media using the liquid handler. Cells were washed once using Biotek EL406 before compound addition for additional 18 hours. Cells were washed and fixed with PFA before immunostained with pAMPK primary antibody and anti-Rabbit HRP secondary antibody. Finally, 25 μl of ECL reagent will be added to cells, and chemical luminescence signal will be counted using plate reader. Compounds efficacies (μM) were determined by the minimal compound concentration needed to increase pAMPK by 30%. Activity: “+” equals >10 μM; “++” equals between ≤10 μM and >1 μM; and “+++” equals ≤1 μM.

SMILES	EC (30% increase) [µM]
O=C(CCOc1ccc(C(F)(F)F)cc1)N(Cc1ccccc1)Cc1ccccc1 [compound 35]	1 to 10
FC(F)(F)c1ccc(OCCCN(Cc2ccccc2)Cc2cccnc2)cc1 [compound 136]	≤ 1
OC(COc1ccc(C(F)(F)F)cc1)CN1Cc2ccccc2C1 (centres unmarked) [compound 19]	> 10
OC(COc1ccc(C(F)(F)F)cc1)CN1CCc2ccccc2[C@@H]1c1ccccc1 (some centres unmarked) [compound 111]	1 to 10
FC(F)(F)c1ccc(OCCCN2CCc3ccccc3C2c2cccnc2)cc1 (centres unmarked) [compound 100]	≤ 1
Cn1ccnc1CN(CCOc1ccc(C(F)(F)F)cc1)Cc1ccccc1Cl [compound 157]	≤ 1
FC(F)(F)c1ccc(OCCCc2nc3ccccc3cc2-c2ccccc2)cc1 [compound 92]	1 to 10
Cc1ccccc1CN(Cc1c[nH]cn1)CC(O)COc1ccc(C(F)(F)F)cc1 (centres unmarked) [compound 69]	≤ 1
O=C(c1cncs1)N(Cc1ccccc1Cl)CC(O)COc1ccc(C(F)(F)F)cc1 (centres unmarked) [compound 90]	≤ 1
Cc1ccccc1CN(Cc1cccnn1)CC(C)(C)COc1ccc(C(F)(F)F)cc1 [compound 181]	≤ 1
O=C(COc1ccc(C(F)(F)F)cc1)Cc1nc2ccccc2cc1-c1cccnc1 [compound 103]	> 10
FC(F)(F)c1ccc(OCCCN2Cc3ccccc3C[C@@H]2c2cccnc2)cc1 [compound 150]	1 to 10
FC(F)(F)c1ccc(OCCCN(Cc2cncs2)Cc2ccccc2Cl)cc1 [compound 104]	≤ 1
Cn1cncc1CN(Cc1ccccc1Cl)CC(O)COc1ccc(F)cc1F (centres unmarked) [compound 147]	> 10
Cc1ccccc1CN(CC(O)COc1ccc(C(F)(F)F)cc1)C(=O)c1cnn(C)c1 (centres unmarked) [compound 82]	≤ 1
Cc1ccccc1CN(CC(O)COc1ccc(C(F)(F)F)cc1)C(=O)c1cccnc1 (centres unmarked) [compound 45]	≤ 1
Cc1ccccc1CN(CCCOc1ccc(C(F)(F)F)cc1)C(=O)c1cncn1C [compound 109]	≤ 1
[2H]C([2H])(c1cccnc1)N(Cc1ccccc1Cl)CC(O)COc1ccc(C(F)(F)F)cc1 (centres unmarked) [compound 102]	≤ 1
c1ccc(CN(CCCOc2ccccc2)Cc2ccccc2)cc1 [compound 61]	1 to 10
Cc1ccncc1CN(Cc1cccnc1)CC(O)COc1ccc(C(F)(F)F)cc1 (centres unmarked) [compound 29]	≤ 1

SMILES	EC (30% increase) [µM]
Cc1ccccc1CN(Cc1cnn(C)c1)CC(O)COc1ccc(C(F)(F)F)cc1 (centres unmarked) [compound 38]	1 to 10
Cc1ccccc1CN(Cc1nccs1)CC(O)COc1ccc(C(F)(F)F)cc1 (centres unmarked) [compound 70]	≤ 1
Cc1ccccc1CN(Cc1cccnc1)CC(F)COc1ccc(C(F)(F)F)cc1 (centres unmarked) [compound 165]	≤ 1
Cc1cccc(C)c1OCC(O)CN(Cc1ccccc1)Cc1ccccc1 (centres unmarked) [compound 18]	≤ 1
Cn1cncc1C(=O)N(CC(=O)COc1ccc(C(F)(F)F)cc1)Cc1ccccc1Cl [compound 161]	≤ 1
O=C(c1cccnc1)N(Cc1ccccc1Cl)CC(O)COc1ccc(C(F)(F)F)cc1 (centres unmarked) [compound 141]	≤ 1
OC(COc1ccc(C(F)(F)F)cc1)CN(Cc1ccccc1)C1(c2cccnc2)CC1 (centres unmarked) [compound 48]	≤ 1
O[C@@H](COc1ccc(C(F)(F)F)cc1)CN1Cc2ccccc2C[C@@H]1c1cccnc1 [compound 130]	≤ 1
CC(C)(COc1ccc(C(F)(F)F)cc1)CN(Cc1cccnc1)Cc1ccccc1Cl [compound 186]	≤ 1
Cc1ccccc1CN(CC(O)COc1ccc(C(F)(F)F)cc1)C(=O)c1ncc[nH]1 (centres unmarked) [compound 77]	1 to 10
Cc1ccccc1CN(Cc1cccnc1)CC(O)COc1ccc(C(F)(F)F)cc1 (centres unmarked) [compound 8]	≤ 1
Cn1ccnc1C1c2ccccc2CCN1CCCOc1ccc(C(F)(F)F)cc1 (centres unmarked) [compound 199]	1 to 10
Cn1cncc1CN(CCCOc1ccc(C(F)(F)F)cc1)Cc1ccccc1Cl [compound 122]	≤ 1
Cc1ccccc1CN(CCCOc1ccc(C(F)(F)F)cc1)C(=O)c1ccccc1 [compound 110]	≤ 1
CN(CC(O)COc1ccc(C(F)(F)F)cc1)CC(c1ccccc1)c1ccccc1 (centres unmarked) [compound 11]	1 to 10
Cc1ccccc1CN(Cc1cccnc1)C(=O)C(O)COc1ccc(C(F)(F)F)cc1 (centres unmarked) [compound 117]	1 to 10
[2H]C1(c2cncs2)c2ccccc2CCN1CCCOc1ccc(C(F)(F)F)cc1 (centres unmarked) [compound 99]	≤ 1
O=C(C(O)COc1ccc(C(F)(F)F)cc1)N(Cc1cccnc1)Cc1ccccc1Cl (centres unmarked) [compound 137]	≤ 1
Cc1ccccc1CN(Cc1sccc1C)CC(O)COc1ccc(C(F)(F)F)cc1 (centres unmarked) [compound 71]	1 to 10
Cc1ccccc1CN(CC(C)(C)COc1ccc(C(F)(F)F)cc1)C(=O)c1cncn1C [compound 192]	≤ 1

SMILES	EC (30% increase) [µM]
O[C@H](COc1ccc(C(F)(F)F)cc1)CN1Cc2ccccc2C[C@H]1c1cccnc1 [compound 133]	≤ 1
Cc1ncccc1CN(Cc1cccnc1)CC(O)COc1ccc(C(F)(F)F)cc1 (centres unmarked) [compound 28]	≤ 1
O[C@@H](COc1ccc(C(F)(F)F)cc1)CN1CCc2ccccc2[C@H]1c1ccccc1 [compound 116]	> 10
Cc1ccncc1C1OC(COc2ccc(C(F)(F)F)cc2)CN1Cc1cccnc1 (centres unmarked) [compound 31]	1 to 10
OC(COc1ccncc1)CN(Cc1ccccc1)Cc1ccccc1 (centres unmarked) [compound 17]	> 10
Cc1ccccc1CN(Cc1cccnc1)CC(C)COc1ccc(C(F)(F)F)cc1 (centres unmarked) [compound 191]	≤ 1
Cc1ccccc1CN(CCCOc1ccc(C(F)(F)F)cc1)Cc1cccnn1 [compound 183]	≤ 1
Cc1ccccc1CN(CC(O)COc1ccccc1)C(=O)c1ccc(C(F)(F)F)nc1 (centres unmarked) [compound 88]	≤ 1
[2H]C([2H])(c1cccnc1)N(Cc1ccccc1)CC(O)COc1ccc(C(F)(F)F)cc1 (centres unmarked) [compound 47]	≤ 1
OC(COc1ccc(C(F)(F)F)cc1)CN(Cc1ccccc1)Cc1cccnc1 (centres unmarked) [compound 43]	≤ 1
O[C@H](COc1ccc(C(F)(F)F)cc1)CN1Cc2ccccc2C[C@@H]1c1cccnc1 [compound 131]	≤ 1
OC(COc1ncccn1)CN(Cc1ccccc1)Cc1ccccc1 (centres unmarked) [compound 15]	> 10
OC(COc1ccc(C(F)(F)F)cc1)CN(CCc1ccccc1)Cc1ccccc1 (centres unmarked) [compound 6]	1 to 10
Cn1cncc1CN(CCOc1ccc(C(F)(F)F)cc1)Cc1ccccc1F [compound 160]	≤ 1
Cc1ccccc1CN(Cc1cccc(C(N)=O)c1)CC(O)COc1ccc(C(F)(F)F)cc1 (centres unmarked) [compound 49]	1 to 10
Cc1ccccc1CN(CC(O)COc1ccc(C(F)(F)F)cc1)C(=O)c1nccn1C (centres unmarked) [compound 83]	≤ 1
Fc1ccccc1CN(Cc1cccnc1)CC1(COc2ccc(C(F)(F)F)cc2)CC1 [compound 143]	≤ 1
O[C@H](COc1ccc(C(F)(F)F)cc1)CN1CCc2ccccc2[C@H]1c1ccccc1 [compound 115]	1 to 10
FC(F)(F)c1ccc(OCCCN(Cc2cccnc2)Cc2ccccc2C(F)(F)F)cc1 [compound 174]	≤ 1
